Here are results for three molecules from patent publication US20090325863A1, “Somatostatin analogs and IGF-I inhibition for breast cancer prevention” (priority 2008, published 2009).

Assay [1] relates to mammary hyperplasia induced by hGH and E2. Kind of assay: Mammary hyperplasia model induced by hGH and E2, counts in histological sections. In kind it is in vivo, rat. Conditions: for Total# / Mild# / Moderate# / Florid# / DH#: Table 3; for Total#: SOM230 30 mcg/h/kg, Octreotide 30 mcg/hr/kg, Tamoxifen 30 mg/21 day release pellet, GH + E2 control 88.3 ± 6.3; for Mild# / Moderate# / Florid# / DH#: same doses; for Mild#: GH + E2 control 4.4 ± 0.6; for Moderate#: GH + E2 control 5.3 ± 0.6; for Florid#: GH + E2 control 10 ± 0.7; for DH#: GH + E2 control 19.7 ± 1.5; for inhibitory effect on hyperplasia compared with SOM230 alone (in words): hGH+E2 model, 7 days, no dose response comparison. The source says:
To test whether SOM230, a drug that inhibits IGF-I action on the breast, was effective, we implemented a model of hyperplasia and then determined whether the hyperplasia could be inhibited by SOM230. We administered human growth hormone (600 mcg in alzet pumps) for a week, and gave this together with estradiol (an estrogen). At the end of 7 days florid hyperplasia developed. Mammary hyperplasia was modeled by treating hypophysectomized, oophorectomized female rats with high doses human growth hormone (hGH) (600 μg in Alzet pumps) and follicular phase concentrations of estradiol (E2) administered in silastic capsules for 7 days. In the absence of hGH, these animals would not undergo mammary development. In animals receiving E2 alone, there was virtually no hyperplasia. When hGH was added to E2 there were more glands (42.2±1.4 vs. 71.9±5.4, E2 vs. E2+hGH, respectively). There was no florid hyperplasia with E2 treatment. When hGH was given also, 26.6% of the glands were hyperplastic, with 50% of those being floridly hyperplastic, 7% moderate hyperplasia and 5.9% mild hyperplasia. […] This is shown in histological sections (FIG. 1), graphically (FIG. 2) and in tabular form below (TABLE 1).
Background: Antiestrogens or aromatase inhibitors are used for breast cancer chemoprevention. These treatments cause unpleasant side effects including hot flashes and vaginal dryness. We have previously shown that IGF-I is required to permit estrogen and progesterone action in the mammary gland. […] Menopausal symptoms would not likely to occur with SOM230 since estrogen is not lowered. Material and Methods: We have approached this issue in several ways. 1) We developed a model of hyperplasia in hypophysectomized and oophorectomized female rats. Hyperplasia was induced by treatment with 600 mcg hGH and follicular phase concentrations of estradiol. Hyperplasia was assessed histologically in sections of mammary gland. 2) To assess translatability to humans we assessed cell proliferation and apoptosis in normal human breast from reduction mammoplasties and samples of usual hyperplasia. 3) We also determined availability of SST receptors in samples of atypical ductal hyperplasia and DCIS, and 4) We have begun to determine whether SOM230 will prevent hyperplasia in humans at risk for breast cancer as it does in rats.
The degree of hyperplasia was analyzed in 3 histological sections at different levels in 3 test animals given GH+E2. The different types of hyperplasia were counted. For example, the total mean number of ducts was 88.3. Of those ducts, there were 19.7 or 22.3% of total ducts that were hyperplastic. The breakdown was a mean of 10 ducts with florid hyperplasia (lumen is distended and mostly obliterated by epithelial cells), a mean of 5.3 ducts with moderate hyperplasia (an increase in cell layers to >4 cells thick), and a mean of 4.4 characterized as mild hyperplasia (no more than 4 cell thickness).
There were 4 additional treatment groups and one E2 treated control group.

The test system of assay [2] is hGH induced TEB formation. Briefly: Hyperplastic terminal endbuds (TEBs) in mammary gland whole mounts, hGH+E2 model. Conditions: hGH+E2, 7 days; reduced from 86.5 (86) TEBs in hGH+E2 control. In kind it is in vivo, rat. The source says: At the end of 7 days one lumbar mammary gland was removed for whole mount analysis and the other for histological analysis. Hyperplastic TEBs were counted in the whole mounts. […] Representative photomicrographs of the whole mounts are provided in FIG. 5 and suppression by the different treatments is shown graphically in FIG. 6.

The test system of assay [3] is pYIRS-1 (phosphorylated IRS-1), product of IGF-I action. Kind of assay: Immunostaining for phosphorylated IRS-1 in mammary gland, hGH+E2 model. In kind it is in vivo, rat. Conditions: hGH+E2 treated animals; staining most intense with hGH+E2. The source says: FIG. 12 depicts immunostaining for pYIRS-1 (phosphorylated IRS-1) in a representative E2 treated control (upper left), an hGH+E2 treated animal (upper right), an hGH+E2+SOM230 treated animal (lower left) and an hGH+E2+tamoxifen treated animal (lower right). The intensity of staining parallels IGF-I action as phosphorylated IRS-1 is a product of IGF-I action. In this study, staining (brown color) was most intense in response to hGH+E2 and was inhibited by both SOM230 and tamoxifen. […] This reflection of inhibition of IGF-I activity also supports the greater inhibitory effect of SOM230 over that of tamoxifen.

Assay [4] concerns development of breast cancer. Conditions: women with hyperplastic lesions of the breast; cited from earlier work.
In another assay the test system is mammary development. Briefly: Mammary development of CD female mice (TEB, branch, area in whole mounts). In kind it is in vivo. As to the method:
The effect of PQ401 and Somatostatin 14 (SS14) on mammary development of CD female mice was determined. FIG. 10 depicts control animals at 21 and 28 days versus 28 day old animals treated with PQ401 for 7 days and 28 day old animals treated with SS14 for 7 days.

Entries after “also recorded” stand apart in the source; their conditions may differ. Marks after values point to notes of the source that are not given here. Bridges are numbered along the chain shown (N, C = ends). Where no end group is shown, it is not given here.

`CC/C(=C(\c1ccccc1)c1ccc(OCCN(C)C)cc1)c1ccccc1` [Tamoxifen]: in assay [1], the “Total#” value amounted to 74.2 ± 7.7, the “Mild#” value is given as 3.6 ± 0.4, the “Moderate#” value was 4.8 ± 0.6 and the “Florid#” value is 4.5 ± 0.6^e. In addition, in assay [1], the “DH#” value stood at 12.4 ± 1.5 and the “inhibitory effect on hyperplasia compared with SOM230 alone (in words)” value is on record as “significantly less effective than SOM230”. In assay [1] (listed as tamoxifen), the “inhibitory effect on hyperplasia compared with SOM230 alone (in words)” value is “significantly lower than SOM230 alone”. Besides, the “number of hyperplastic TEBs in whole mounts” value in assay [2] is listed as 49. Moreover, in assay [3], the “intensity of pYIRS-1 immunostaining” value is “inhibited; also recorded: more intense than in the SOM230 treated one”. The “prevention of the development of cancer” value in assay [4] is on record as “about 50%”.

Turning to “Somatostatin 14: Somatostatin 14 (SS14) (AGCKNFFWKTFTSC; disulfide 3-14; ends not checked; UniProt P61278 103-116, looked up)”, the “TEB (number)” value in the assay with mammary development (28 day old CD female mice treated 7 days, PQ401 100/kgbw ip thrice weekly, SS14 15 mcg/hr/Kg Alzet pump, 28d control 18.6 ± 1.5) is on record as 18.5 ± 1.5. For the same molecule, the area % with mammary development (same treatment, 28d control 52.2 ± 2.0, 21d control 23 ± 3.2) is 36.3 ± 6.2%.

As to Octreotide, in assay [1], the “Total#” value came out at 76.3 ± 7.3, the “Mild#” value is listed as 4.6 ± 0.8, the “Moderate#” value was found to be 5.8 ± 1.0 and the “Florid#” value was 5.0 ± 0.8^e. In addition, in assay [1], the “DH#” value is reported as 15.4 ± 2.6 and the “inhibitory effect on hyperplasia compared with SOM230 alone (in words)” value is “significantly lower than SOM230 alone”. The “number of hyperplastic TEBs in whole mounts” value in assay [2] turned out to be 60.
